Laboratory results as given in US11917959B2, “Multi-ear system to enhance monocot plant yield” (Monsanto Technology LLC, priority 2015, dated 2024).

Tests used:
[1] = tested on: eleven corn inbred germplasm; assay: Chemistry treatment of eleven corn inbred germplasm at V3 or V8 (Example 12); format: in vivo; conditions: auto-self
From the text: Seeds for eleven corn inbred germplasm was planted in six-packs and grown in greenhouses under standard conditions as outlined in Example 1. At thirteen days after germination the seedlings for the eleven different germplasm (20 plants per germplasm) were transplanted into standard pots. […]

[2] = tested on: haploid maize lines (Germplasm A, Germplasm B); assay: Co-dominant ear induction by PBZ soil drench in colchicine-doubled haploid maize (Example 1); format: in vivo
From the text: V1-V3 seedlings of two unique F1 hybrid-derived haploid maize lines, derived from: female heterotic group (Germplasm A) or male heterotic group (Germplasm B), were subjected to a bulk colchicine-based chromosome doubling treatment by removing the seedlings from soil or growth media at the V1-V3 growth stage and aligning their stems and wrapping them together along with several wooden rods into bundle a held together by a strip of aluminum foil (approximate foil strip dimensions were 6 in×18 in). The bundled plants were submerged in plant treatment solution comprising 1250 ppm of colchicine in a centrifuge container and then the entire sample was centrifuged at 50 g for 3 min while the shoot apical meristems (SAMs) remained submerged in the plant treatment agent solution.
Following the first centrifugation, the plant treatment solution was decanted and the seedlings subjected to an addition centrifugation at 335 g for 3 min. During the second centrifugation, the rod-wrap bundle supported the seedlings and prevented the SAMs from contacting the reserve treatment agent that was not absorbed by the plant during application of the centrifugal force.
Following the second centrifugation, the plants were removed from the centrifugation container and the rod-wrap bundle and rinsed with water to remove any remaining colchicine solution, and then recovered and tended in a light, humidity, and temperature-controlled greenhouse for several days before being transplanted to a nursery greenhouse. These centrifuge-based treatment methods are described in more detail in International application number PCT/US2015/028955, which is incorporated by reference herein in its entirety, however, standard doubling treatments can also be applied to any of the haploid doubling steps referred to herein.
Following colchicine doubling treatment, 15-20 plants from each germplasm were planted in pots at two different densities; either as single plants per pot (singles), or as two plants per pot (pairs).
Next, each plant received one of two different doses of PBZ, either 50 mL (low dose) or 60 mL (high dose) of a 2.5% PBZ solution (v/v; 0.4% of active ingredient) in water. These two different doses were applied by soil drench at either the V7 or V8 growth stage, which occurred a total of 23 or 26 days after the seedlings had been subjected to chromosome doubling treatment, respectively. A control group of plants received no treatment solution but were otherwise treated exactly as the experimental groups planted as singles. When pollen shed began at the tassels, the average number of silk-producing ears (i.e. co-dominant ears) were counted for each dosage, germplasm, and treatment time and the results summarized in Table. 1.

[3] = pedigree G, 8HV: 28DAP, 16 mg/plant, 4% 100 mL
[4] = pedigree G, 8LV: 28DAP, 16 mg/plant, 25% 16 mL
[5] = pedigree H, 3HV: 14DAP, 6 mg/plant, 3% 50 mL
[6] = pedigree H, 3LV: 14DAP, 6 mg/plant, 9.38% 16 mL
[7] = pedigree H, 8HV: 28DAP, 16 mg/plant, 4% 100 mL
[8] = pedigree H, 8LV: 28DAP, 16 mg/plant, 25% 16 mL
[9] = pedigree I, 3HV: 14DAP, 10 mg/plant, 5% 50 mL
[10] = pedigree I, 3LV: 14DAP, 10 mg/plant, 15.63% 16 mL
[11] = pedigree I, 8HV: 28DAP, 32 mg/plant, 8% 100 mL
[12] = pedigree I, 8LV: 28DAP, 32 mg/plant, 50% 16 mL
[13] = pedigree J, 3HV: 14DAP, 10 mg/plant, 5% 50 mL
[14] = pedigree J, 3LV: 14DAP, 10 mg/plant, 15.63% 16 mL
[15] = pedigree J, 8HV: 28DAP, 32 mg/plant, 8% 100 mL
[16] = pedigree J, 8LV: 28DAP, 32 mg/plant, 50% 16 mL
[17] = pedigree K, 3HV: 14DAP, 6 mg/plant, 3% 50 mL
[18] = pedigree K, 8HV: 28DAP, 16 mg/plant, 4% 100 mL
[19] = pedigree K, 8LV: 28DAP, 16 mg/plant, 25% 16 mL
[20] = pedigree K, K3LV: 14DAP, 6 mg/plant, 9.38% 16 mL

CC(C)(C)[C@@H](O)[C@@H](Cc1ccc(Cl)cc1)n1cncn1 (relative stereo) [PBZ, (±)-(R*, R*)-beta-((4-chlorophenyl)methyl)-alpha-(1,1,-dimethylethyl)-1H-1,2,4,-triazole-1-ethanol]
Avg Kernels from Main Stem [1, 3]: 284.50
Avg Total Kernels Per Plant [1, 3]: 567.00
Avg Kernels from Main Stem [1, 4]: 542.75
Avg Total Kernels Per Plant [1, 4]: 728.25
Avg Kernels from Main Stem [1, 5]: 77.50
Avg Total Kernels Per Plant [1, 5]: 80.00
Avg Kernels from Main Stem [1, 6]: 73.25
Avg Total Kernels Per Plant [1, 6]: 83.00
Avg Kernels from Main Stem [1, 7]: 388.50
Avg Total Kernels Per Plant [1, 7]: 520.00
Avg Kernels from Main Stem [1, 8]: 439.75
Avg Total Kernels Per Plant [1, 8]: 564.75
Avg Kernels from Main Stem [1, 9]: 172.00
Avg Total Kernels Per Plant [1, 9]: 218.75
Avg Kernels from Main Stem [1, 10]: 175.00
Avg Total Kernels Per Plant [1, 10]: 191.25
Avg Kernels from Main Stem [1, 11]: 508.75
Avg Total Kernels Per Plant [1, 11]: 550.50
Avg Kernels from Main Stem [1, 12]: 448.25
Avg Total Kernels Per Plant [1, 12]: 448.25
Avg Kernels from Main Stem [1, 13]: 587.00
Avg Total Kernels Per Plant [1, 13]: 1005.75
Avg Kernels from Main Stem [1, 14]: 602.75
Avg Total Kernels Per Plant [1, 14]: 953.25
Avg Kernels from Main Stem [1, 15]: 361.50
Avg Total Kernels Per Plant [1, 15]: 398.75
Avg Kernels from Main Stem [1, 16]: 280.50
Avg Total Kernels Per Plant [1, 16]: 298.75
Avg Kernels from Main Stem [1, 17]: 317.75
Avg Total Kernels Per Plant [1, 17]: 365.00
Avg Kernels from Main Stem [1, 18]: 446.75
Avg Total Kernels Per Plant [1, 18]: 487.00
Avg Kernels from Main Stem [1, 19]: 495.00
Avg Total Kernels Per Plant [1, 19]: 539.75
Avg Kernels from Main Stem [1, 20]: 418.75
Avg Total Kernels Per Plant [1, 20]: 437.75
number of co-dominant ears formed per plant ([2]; V7, Germplasm A, pairs, high dose (60 mL 2.5% PBZ)): 3.4
number of co-dominant ears formed per plant ([2]; V7, Germplasm A, pairs, low dose (50 mL 2.5% PBZ)): 3
number of co-dominant ears formed per plant ([2]; V7, Germplasm A, singles, high dose (60 mL 2.5% PBZ)): 3.9
number of co-dominant ears formed per plant ([2]; V7, Germplasm A, singles, low dose (50 mL 2.5% PBZ)): 3.4
number of co-dominant ears formed per plant ([2]; V7, Germplasm B, pairs, high dose (60 mL 2.5% PBZ)): 1.5
number of co-dominant ears formed per plant ([2]; V7, Germplasm B, pairs, low dose (50 mL 2.5% PBZ)): 1.5
number of co-dominant ears formed per plant ([2]; V7, Germplasm B, singles, high dose (60 mL 2.5% PBZ)): 3.3
number of co-dominant ears formed per plant ([2]; V7, Germplasm B, singles, low dose (50 mL 2.5% PBZ)): 2.7
number of co-dominant ears formed per plant ([2]; V8, Germplasm A, pairs, high dose (60 mL 2.5% PBZ)): 2.2
number of co-dominant ears formed per plant ([2]; V8, Germplasm A, pairs, low dose (50 mL 2.5% PBZ)): 2.3
number of co-dominant ears formed per plant ([2]; V8, Germplasm A, singles, high dose (60 mL 2.5% PBZ)): 3.5
number of co-dominant ears formed per plant ([2]; V8, Germplasm A, singles, low dose (50 mL 2.5% PBZ)): 2.3
number of co-dominant ears formed per plant ([2]; V8, Germplasm B, pairs, high dose (60 mL 2.5% PBZ)): 1.5
number of co-dominant ears formed per plant ([2]; V8, Germplasm B, pairs, low dose (50 mL 2.5% PBZ)): 1.5
number of co-dominant ears formed per plant ([2]; V8, Germplasm B, singles, high dose (60 mL 2.5% PBZ)): 2.2
number of co-dominant ears formed per plant ([2]; V8, Germplasm B, singles, low dose (50 mL 2.5% PBZ)): 2.3
average EP (ear per plant), high dosage greater than low dosage by ([2]; all plants): 0.31
average EP, high-dose higher than low-dose by ([2]; singles only): 0.55
minimum increase over control plants ([2]; singles, low dose): ≥ 1.2 EP
